Laboratory results published in PubChem BioAssay AID1918933 (Molecular Pharmacology Branch, DTP, NCI, 2023).
“And” between values parts separate entries of the source, which are not always exact repeats. Equal entries are not always repeated.

Test system: 186277-243-T-J2-PDC complex spheroid viability
Assay: Anticancer human tumor 186277-243-T-J2-PDC patient-derived colon adenocarcinoma cell line growth inhibition
Details: for viability, T/C: stronger effect = lower value
Outline: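 Complex spheroids of tumor cells with HUVEC and human MSCs, exposed to iadademstat combined with other agents. Each agent tested in half-log steps from near clinical Cmax (else 10 microM top), DMSO ≤0.25%.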

[1] = curve of first compound, second compound 0.1 µM
[2] = curve of first compound, second compound 0.316 µM
[3] = curve of first compound, second compound 1 µM
[4] = curve of first compound, second compound 3.16 µM
[5] = curve of first compound, second compound 10 µM
[6] = second compound 0.1 µM, first compound 0.0316 µM
[7] = second compound 0.1 µM, first compound 0.1 µM
[8] = second compound 0.1 µM, first compound 0.316 µM
[9] = second compound 0.1 µM, first compound 1 µM
[10] = second compound 0.316 µM, first compound 0.0316 µM
[11] = second compound 0.316 µM, first compound 0.1 µM
[12] = second compound 0.316 µM, first compound 0.316 µM
[13] = second compound 0.316 µM, first compound 1 µM
[14] = second compound 1 µM, first compound 0.0316 µM
[15] = second compound 1 µM, first compound 0.1 µM
[16] = second compound 1 µM, first compound 0.316 µM
[17] = second compound 1 µM, first compound 1 µM
[18] = second compound 3.16 µM, first compound 0.0316 µM
[19] = second compound 3.16 µM, first compound 0.1 µM
[20] = second compound 3.16 µM, first compound 0.316 µM
[21] = second compound 3.16 µM, first compound 1 µM
[22] = second compound 10 µM, first compound 0.0316 µM
[23] = second compound 10 µM, first compound 0.1 µM
[24] = second compound 10 µM, first compound 0.316 µM
[25] = second compound 10 µM, first compound 1 µM
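Further: 7 day exposure to compounds.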
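Wherever viability, T/C is given: 100% = DMSO vehicle control viability.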

Q: With `COc1cc(C2c3cc4c(cc3C(OC3OC5COC(C)OC5C(O)C3O)C3COC(=O)C23)OCO4)cc(OC)c1O` (centres undefined) as the molecule, how does the viability, T/C (compound 0.00949 µM) read?
A: 101% and 112%

Q: And the viability, T/C (compound 0.03 µM)?
A: 100% and 124%

Q: What about the viability, T/C (compound 0.0949 µM) of the same molecule?
A: 92.8% and 98.9%

Q: What about the viability, T/C (compound 0.3 µM) of the same molecule?
A: 75.2% and 70.9%

Q: And the viability, T/C (compound 0.949 µM)?
A: 61.2% and 39%

Q: And the viability, T/C (compound 3 µM)?
A: 40.3% and 17.3%

Q: And the IC50 (curve of compound)?
A: 1700 nM and 618 nM

Q: Which IC50 [1] does the source give for `COc1cc(Nc2ncc3c(n2)-c2ccc(Cl)cc2C(c2c(F)cccc2OC)=NC3)ccc1C(=O)O` + NC1CC1c1ccc(-c2cccc(O)c2)cc1 here?
A: > 1000 nM

Q: And the IC50 [2]?
A: > 1000 nM

Q: And the IC50 [3]?
A: > 1000 nM

Q: And the IC50 [4]?
A: > 1000 nM

Q: What about the IC50 [5] of the same molecule?
A: > 1000 nM

Q: What about the viability, T/C (second compound 0.1 µM, first compound 0.00316 µM) of the same molecule?
A: 128%

Q: What about the viability, T/C (second compound 0.1 µM, first compound 0.01 µM) of the same molecule?
A: 115%

Q: What about the viability, T/C [6] of the same molecule?
A: 116%

Q: And the viability, T/C [7]?
A: 107%

Q: What about the viability, T/C [8] of the same molecule?
A: 124%

Q: What about the viability, T/C [9] of the same molecule?
A: 111%

Q: What about the viability, T/C (second compound 0.316 µM, first compound 0.00316 µM) of the same molecule?
A: 133%

Q: What about the viability, T/C (second compound 0.316 µM, first compound 0.01 µM) of the same molecule?
A: 125%

Q: What about the viability, T/C [10] of the same molecule?
A: 119%

Q: And the viability, T/C [11]?
A: 108%

Q: What about the viability, T/C [12] of the same molecule?
A: 124%

Q: What about the viability, T/C [13] of the same molecule?
A: 109%

Q: And the viability, T/C (second compound 1 µM, first compound 0.00316 µM)?
A: 140%

Q: What about the viability, T/C (second compound 1 µM, first compound 0.01 µM) of the same molecule?
A: 132%

Q: And the viability, T/C [14]?
A: 130%

Q: And the viability, T/C [15]?
A: 117%

Q: And the viability, T/C [16]?
A: 131%

Q: What about the viability, T/C [17] of the same molecule?
A: 114%

Q: What about the viability, T/C (second compound 3.16 µM, first compound 0.00316 µM) of the same molecule?
A: 155%

Q: And the viability, T/C (second compound 3.16 µM, first compound 0.01 µM)?
A: 143%

Q: What about the viability, T/C [18] of the same molecule?
A: 143%

Q: What about the viability, T/C [19] of the same molecule?
A: 126%

Q: And the viability, T/C [20]?
A: 128%

Q: And the viability, T/C [21]?
A: 111%

Q: What about the viability, T/C (second compound 10 µM, first compound 0.00316 µM) of the same molecule?
A: 137%

Q: And the viability, T/C (second compound 10 µM, first compound 0.01 µM)?
A: 139%

Q: And the viability, T/C [22]?
A: 130%

Q: And the viability, T/C [23]?
A: 123%

Q: What about the viability, T/C [24] of the same molecule?
A: 120%

Q: And the viability, T/C [25]?
A: 89.8%

Q: How did the IC50 [1] turn out when `CC1(C)CCC(CN2CCN(c3ccc(C(=O)NS(=O)(=O)c4ccc(NCC5CCOCC5)c([N+](=O)[O-])c4)c(Oc4cnc5[nH]ccc5c4)c3)CC2)=C(c2ccc(Cl)cc2)C1` + NC1CCC(NC2CC2c2ccccc2)CC1 was run?
A: 4910 nM

Q: And the IC50 [2]?
A: 4970 nM

Q: What about the IC50 [3] of the same molecule?
A: 5120 nM

Q: What about the IC50 [4] of the same molecule?
A: 5040 nM

Q: What about the IC50 [5] of the same molecule?
A: 4570 nM

Q: And the viability, T/C [6]?
A: 92%

Q: And the viability, T/C [7]?
A: 114%

Q: What about the viability, T/C [8] of the same molecule?
A: 101%

Q: What about the viability, T/C [9] of the same molecule?
A: 97.7%

Q: And the viability, T/C (second compound 0.1 µM, first compound 3.16 µM)?
A: 73.5%

Q: What about the viability, T/C (second compound 0.1 µM, first compound 10 µM) of the same molecule?
A: 12%

Q: What about the viability, T/C [10] of the same molecule?
A: 106%

Q: What about the viability, T/C [11] of the same molecule?
A: 117%

Q: What about the viability, T/C [12] of the same molecule?
A: 99.4%

Q: And the viability, T/C [13]?
A: 109%

Q: What about the viability, T/C (second compound 0.316 µM, first compound 3.16 µM) of the same molecule?
A: 74.9%

Q: And the viability, T/C (second compound 0.316 µM, first compound 10 µM)?
A: 11.5%

Q: What about the viability, T/C [14] of the same molecule?
A: 100%

Q: And the viability, T/C [15]?
A: 105%

Q: And the viability, T/C [16]?
A: 106%

Q: What about the viability, T/C [17] of the same molecule?
A: 101%

Q: And the viability, T/C (second compound 1 µM, first compound 3.16 µM)?
A: 77.9%

Q: What about the viability, T/C (second compound 1 µM, first compound 10 µM) of the same molecule?
A: 11.3%

Q: And the viability, T/C [18]?
A: 107%

Q: And the viability, T/C [19]?
A: 107%

Q: What about the viability, T/C [20] of the same molecule?
A: 115%

Q: And the viability, T/C [21]?
A: 95.8%

Q: And the viability, T/C (second compound 3.16 µM, first compound 3.16 µM)?
A: 79.2%

Q: What about the viability, T/C (second compound 3.16 µM, first compound 10 µM) of the same molecule?
A: 8.73%

Q: What about the viability, T/C [22] of the same molecule?
A: 98.9%

Q: And the viability, T/C [23]?
A: 107%

Q: And the viability, T/C [24]?
A: 96.6%

Q: What about the viability, T/C [25] of the same molecule?
A: 97.6%

Q: And the viability, T/C (second compound 10 µM, first compound 3.16 µM)?
A: 69.1%

Q: And the viability, T/C (second compound 10 µM, first compound 10 µM)?
A: 9.39%

Q: Which results are given for `COc1ccc([C@@H](O)c2cc(-c3ncnc4cc(N5CCOCC5)ccc34)c(F)cc2Cl)nn1`?
A: viability, T/C (compound 0.0316 µM): 103% and 101%; viability, T/C (compound 0.1 µM): 104% and 100%; viability, T/C (compound 0.316 µM): 87.8% and 101%; viability, T/C (compound 1 µM): 84.4% and 100%; viability, T/C (compound 3.16 µM): 46.7% and 64.8%; viability, T/C (compound 10 µM): 3.51% and 12.2%; IC50 (curve of compound): 2970 nM and 4370 nM

Q: How did the viability, T/C (compound 0.00949 µM) turn out when `CCN(c1cc(-c2ccc(CN3CCOCC3)cc2)cc(C(=O)NCc2c(C)cc(C)[nH]c2=O)c1C)C1CCOCC1` was run?
A: 106% and 93.9%

Q: What about the viability, T/C (compound 0.03 µM) of the same molecule?
A: 99.2% and 112%

Q: And the viability, T/C (compound 0.0949 µM)?
A: 108% and 96.8%

Q: And the viability, T/C (compound 0.3 µM)?
A: 99.2% and 104%

Q: What about the viability, T/C (compound 0.949 µM) of the same molecule?
A: 99.2% and 108%

Q: And the viability, T/C (compound 3 µM)?
A: 101% and 30.2%

Q: What about the IC50 (curve of compound) of the same molecule?
A: > 3000 nM and 2200 nM

Q: For `NC1CCC(NC2CC2c2ccccc2)CC1` (centres undefined), which viability, T/C (compound 0.316 µM) is on record?
A: 104% and 114%

Q: And the IC50 (compound alone, run of 01/18/2022)?
A: > 10000 nM

Q: How did the viability, T/C (compound 0.1 µM) turn out when `NC1CC1c1ccc(-c2cccc(O)c2)cc1` (centres undefined) was run?
A: 101%

Q: What about the viability, T/C (compound 0.316 µM) of the same molecule?
A: 102% [middle of 25 runs]

Q: And the viability, T/C (compound 3.16 µM)?
A: 107% [middle of 25 runs]

Q: What about the IC50 (compound alone, run of 02/01/2022) of the same molecule?
A: > 10000 nM

Q: Which results are given for `Nc1ccccc1NC(=O)c1ccc(CNC(=O)OCc2cccnc2)cc1`?
A: viability, T/C (compound 0.00949 µM): 99.8% and 104%; viability, T/C (compound 0.03 µM): 99.2% and 98.5%; viability, T/C (compound 0.0949 µM): 102% and 106%; viability, T/C (compound 0.3 µM): 88.2% and 103%; viability, T/C (compound 0.949 µM): 64.4% and 20.6%; viability, T/C (compound 3 µM): 14.5% and 1.27%; IC50 (curve of compound): 1310 nM and 628 nM
